{
  "source": "patent US20100239501A1",
  "about": "“GENE SENSITIVE TO BONE/JOINT DISEASE AND USE THEREOF” (RIKEN, priority 2007, published 2010)",
  "key": {"[1]": {"test_system": "OA patient-derived fibroblast-like synovial cells (HFLS-OA)", "assay": "Inflammatory cytokine and MMP gene expression induction by LPA in human OA synovial cells", "type": "cell-based", "procedure": "The inflammatory cytokine expression induction reaction of LPA, which is a ligand of EDG2, in OA patient-derived fibroblast-like synovial cells was analyzed. The method used is described below. OA patient-derived fibroblast-like synovial cells (HFLS-OA) were purchased from Cell application Co. The HFLS-OA was cultured using the attached Synoviocyte growth medium. The number of passages for the cells used was 4 or 5. The HFLS-OA was seeded to a 24-well plate at a ratio of 1×10^5 cells/well, and cultured using the attached Synoviocyte growth medium until they became confluent. Twelve hours before performing LPA stimulation, the medium was replaced with Ham's F-12 (Invitrogen) medium containing 0.1% fatty acid free bovine serum albumin (Sigma). In the time-related change analysis, 12 hours after the medium replacement, the cells were stimulated with 10 μM LPA; 0, 1, 2, 4, 8, 12 and 24 hours later, total RNA was extracted using ISOGEN (Nippon Gene), and the amounts expressed of the TNFA, IL1B, and IL6 genes, which are inflammatory cytokine genes, and of the MMP1, MMP3, and MMP13 genes, which are Matrix metalloproteinase (MMP) genes, were quantified by a method in accordance with Example 10 (n=4). In the dose dependency test, 12 hours after the medium replacement, the cells were stimulated with 0, 0.1, 0.3, 1, 3 and 10 μM LPA; 2 hours later, total RNA was extracted using ISOGEN (Nippon Gene), and the amounts expressed of the TNFA, IL1B, and IL6 genes, which are inflammatory cytokine genes, were quantified in the same manner as the above for the time-related change test (n=3). As a result of the time-related change test of inflammatory cytokine genes with LPA stimulation, the amounts of TNFA, IL1B and IL6 expressed rose transiently, with peaks reached 2, 4 and 1 hour later, respectively (FIGS. 8a, b and c). The amounts expressed of the MMP1, MMP3, and MMP13 genes, which are MMP genes, rose transiently, with peaks reached 8, 8 and 4 hours later, respectively (FIGS. 8d, e and f). It is known that in synovial cells, MMP genes have the expression thereof increased by inflammatory cytokines. In this experiment, the rise in the expression of the inflammatory cytokine genes preceded the rise in the expression of the MMP genes; therefore, the rise in the expression of MMP genes with LPA stimulation may be a secondary reaction via an inflammatory cytokine. As a result of the dose dependency test, it was shown that LPA raises the expression of inflammatory cytokine genes dose-dependently (FIGS. 8g, h and i). The amounts expressed of the TNFA and IL1B genes nearly reached a plateau at 1 μM, whereas the expression of the IL6 gene rose dose-dependently up to 10 μM. […] From this finding, it is thought that the inflammatory cytokine gene group induction reaction of LPA is very highly likely to be a reaction mediated mainly by the EDG2 gene."}, "[2]": {"test_system": "rabbit synovial cell line (HIG-82)", "assay": "Inflammatory cytokine and MMP gene expression induction by LPA in rabbit synovial cell line", "type": "cell-based", "procedure": "EDG2 is a GPCR having lysophosphatidic acid (LPA) as a ligand thereof. For LPA, four receptors, including EDG2, have been reported (EDG2, EDG4, EDG7 and GPR23). To analyze the tissue distributions of these four LPA receptors, an expression quantitation analysis by quantitative real-time PCR in various human tissues was performed. On 500 ng of total RNA of each of various human tissues (Human Total RNA Master Panel, Clontech), reverse transcription was performed using Multiscribe reverse transcriptase (Applied biosystems) and a random hexamer, whereby a cDNA was obtained. Quantitation of the LPA receptor genes was performed using QuantiTect STBR Green PCR (Qiagen) on the ABI PRISM 7700 sequence detection system (Applied biosystems) as directed in the documentation attached. The number of copies of each gene was calculated using a working curve. The amount of each gene was standardized by being divided by the number of copies of the G3PDH gene. A Toyobo product was used as the primer for the G3PDH gene. […] In these organs, the amount of the EDG2 gene expressed was about 20 to 100 times as high as other LPA receptor genes; this gene is a dominant LPA receptor (FIG. 2). The EDG2 gene was also found to be expressed at moderate levels in the adrenal, cerebellum, lung, placenta, prostate, testis, thyroid, trachea, and uterus (FIG. 2). In these tissues, EDG2 was not always a dominant LPA receptor.\nThe inflammatory cytokine expression induction reaction of LPA in a rabbit synovial cell line was analyzed. The method used is described below. A rabbit synovial cell line (HIG-82) was purchased from ATCC. The HIG-82 was cultured using Ham's F-12 medium (Invitrogen) containing 10% fetal bovine serum (FBS) and antibiotics (100 U/ml penicillin G and 100 μg/ml streptomycin). The HIG-82 was seeded to a 24-well plate at a ratio of 1×10^5 cells/well, and cultured until they became confluent. Twelve hours before performing LPA stimulation, the medium was replaced with Ham's F-12 medium containing 0.1% fatty acid free bovine serum albumin (Sigma). In the time-related change analysis, 12 hours after the medium replacement, the cells were stimulated with 10 μM LPA; 0, 2, 4, 8, 12 and 24 hours later, total RNA was extracted using ISOGEN (Nippon Gene), and the amounts expressed of the TNFA and IL1B genes, which are inflammatory cytokine genes, and of the MMP1, MMP3 and MMP13 genes, which are MMP genes, were quantified by a method in accordance with Example 10 (n=4). In the dose dependency test, 12 hours after the medium replacement, the cells were stimulated with 0, 0.1, 1 and 10 μM LPA; 2 hours later, total RNA was extracted using ISOGEN (Nippon Gene), and the amounts expressed of the TNFA and IL1B genes, which are inflammatory cytokine genes, were quantified by the same method as with the time-related change test (n=4). As a result of the time-related change test of inflammatory cytokine genes with LPA stimulation, the amounts expressed of the TNFA and IL1B genes rose transiently, with peaks reached 2 hours later (FIGS. 9a and b). The amounts expressed of the MMP1, MMP3 and MMP13 genes, which are MMP genes, rose transiently, with peaks reached 4, 4 and 8 hours later, respectively. As a result of the dose dependency test, it was shown that LPA raised the expression of inflammatory cytokine genes dose-dependently. The amount expressed of the IL1B gene nearly reached a plateau at 1 μM, whereas the amount expressed of the TNFA gene rose dose-dependently up to 10 μM. The results above are well similar to the results for HFLS-OA shown in Example 17, showing that in HIG-82 cells as well, the expression of inflammatory cytokine genes is induced with LPA stimulation, and the expression of MMPs is induced paracrinely."}},
  "data": [
    {"smiles": "CCCCCCCC/C=C\\CCCCCCCC(=O)OC[C@@H](O)COP(=O)(O)O", "note": "[LPA, 1-Oleoyl-sn-Glycero-3-Phosphate]", "values": [
      {"measurement": "rise of expression of inflammatory cytokine genes (TNFA, IL1B, IL6)", "setting": "[1]; 0, 0.1, 0.3, 1, 3 and 10 μM LPA, 2 hours, n=3", "result": "dose-dependently"},
      {"measurement": "time of peak of IL1B expression", "setting": "[1]; 10 μM LPA, transient rise, n=4", "result": 4, "unit": "h"},
      {"measurement": "time of peak of IL6 expression", "setting": "[1]; 10 μM LPA, transient rise, n=4", "result": 1, "unit": "h"},
      {"measurement": "time of peak of MMP1 gene expression", "setting": "[1]; 10 μM LPA, transient rise, n=4", "result": 8, "unit": "h"},
      {"measurement": "time of peak of MMP3 gene expression", "setting": "[1]; 10 μM LPA, transient rise, n=4", "result": 8, "unit": "h"},
      {"measurement": "time of peak of MMP13 gene expression", "setting": "[1]; 10 μM LPA, transient rise, n=4", "result": 4, "unit": "h"},
      {"measurement": "time of peak of TNFA expression", "setting": "[1]; 10 μM LPA, transient rise, n=4", "result": 2, "unit": "h"},
      {"measurement": "LPA concentration at which IL1B gene expression nearly reached a plateau", "setting": "[1]; dose dependency test, 2 hours", "result": 1, "unit": "µM"},
      {"measurement": "LPA concentration at which TNFA gene expression nearly reached a plateau", "setting": "[1]; dose dependency test, 2 hours", "result": 1, "unit": "µM"},
      {"measurement": "LPA concentration up to which IL6 gene expression rose dose-dependently", "setting": "[1]; dose dependency test, 2 hours", "result": "up to 10 μM"},
      {"measurement": "rise of expression of inflammatory cytokine genes (TNFA, IL1B)", "setting": "[2]; 0, 0.1, 1 and 10 μM LPA, 2 hours, n=4", "result": "dose-dependently"},
      {"measurement": "time of peak of IL1B gene expression", "setting": "[2]; 10 μM LPA, transient rise, n=4", "result": 2, "unit": "h"},
      {"measurement": "time of peak of MMP1 gene expression", "setting": "[2]; 10 μM LPA, transient rise, n=4", "result": 4, "unit": "h"},
      {"measurement": "time of peak of MMP3 gene expression", "setting": "[2]; 10 μM LPA, transient rise, n=4", "result": 4, "unit": "h"},
      {"measurement": "time of peak of MMP13 gene expression", "setting": "[2]; 10 μM LPA, transient rise, n=4", "result": 8, "unit": "h"},
      {"measurement": "time of peak of TNFA gene expression", "setting": "[2]; 10 μM LPA, transient rise, n=4", "result": 2, "unit": "h"},
      {"measurement": "LPA concentration at which IL1B gene expression nearly reached a plateau", "setting": "[2]; dose dependency test, 2 hours", "result": 1, "unit": "µM"},
      {"measurement": "LPA concentration up to which TNFA gene expression rose dose-dependently", "setting": "[2]; dose dependency test, 2 hours", "result": "up to 10 μM"}
    ]}
  ]
}
